According to patent US20170253601A1, “Substituted Pyrrolidine Compounds” (EPIZYME, INC., priority 2014, published 2017):

These compounds were tested against T1, human SMYD3 (Homo sapiens, UniProt Q9H7B4) (assay: SMYD3 Biochemical Assay (3H-SAM, MEKK2 protein substrate, SPA)). Conditions: Table 1; average of n = 1 to n = 50; read-out: SMYD3 Biochem IC50.
T1 construct: Expressed full-length human His-tagged SMYD3 protein was purified from cell paste; His6 (cleaved yes); TEV and SUMO cleavage sites (cleaved yes); made in house; host or cells: E. coli BL21 codonplus RIL
T1 sequence (Q9H7B4 1-428): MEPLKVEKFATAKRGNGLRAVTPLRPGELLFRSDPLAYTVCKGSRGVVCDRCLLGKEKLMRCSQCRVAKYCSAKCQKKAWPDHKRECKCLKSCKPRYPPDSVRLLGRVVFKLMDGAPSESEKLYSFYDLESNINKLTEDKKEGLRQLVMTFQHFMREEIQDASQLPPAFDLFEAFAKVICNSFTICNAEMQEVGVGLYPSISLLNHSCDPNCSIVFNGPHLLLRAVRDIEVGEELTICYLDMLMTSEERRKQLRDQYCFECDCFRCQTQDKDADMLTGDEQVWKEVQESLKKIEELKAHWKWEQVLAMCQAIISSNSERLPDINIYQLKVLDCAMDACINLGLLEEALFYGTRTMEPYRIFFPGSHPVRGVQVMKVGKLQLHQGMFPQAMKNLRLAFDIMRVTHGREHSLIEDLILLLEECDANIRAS
Source text: S-adenosylmethionine (SAM), S-adenosylhomocysteine (SAH), Tris, Tween20, dimethylsulfoxide (DMSO), bovine skin gelatin (BSG), and Tris(2-carboxyethyl)phosphine hydrochloride solution (TCEP) were purchased from Sigma-Aldrich at the highest level of purity possible. ^3H-SAM was purchase from American Radiolabeled Chemicals with a specific activity of 80 Ci/mmol. 384-well opaque white OptiPlates and SPA beads (Perkin Elmer, catalog # RPNQ0013) were purchased from PerkinElmer.
N-terminally GST-tagged MEKK2 (MAP3K2) protein corresponding to reference sequence AAF63496.3 was purchased from Life Technologies (catalog # PV4010). This protein was expressed in High Five insect cells and purified to >85% purity. Protein identity was confirmed by MS/MS analysis after proteolytic digestion. The protein sequence used was:
Full-length human SMYD3 isoform 1 (BAB86333) was inserted into a modified pET21b plasmid containing a His6 tag and TEV and SUMO cleavage sites. Because two common variants of SMYD3 exist in the population, site directed mutagenesis was subsequently performed to change amino acid 13 from an asparagine to a lysine, resulting in plasmid pEPZ533. A lysine at position 13 conforms to the more commonly occurring sequence (NP_001161212).
E. coli (BL21 codonplus RIL strain, Stratagene) were transformed with plasmid pEPZ553 by mixing competent cells and plasmid DNA and incubating on ice for 30 minutes followed by heat shock at 42° C. for 1 minute and cooling on ice for 2 minutes. Transformed cells were grown and selected on LB agar with 100 μg/mL ampicillin and 17 μg/mL chloramphenicol at 37° C. overnight. A single clone was used to inoculate 200 mL of LB medium with 100 μg/mL ampicillin and 17 μg/mL chloramphenicol and incubated at 37° C. on an orbital shaker at 180 rpm. Once in log growth, the culture was diluted 1:100 into 2 L of LB medium and grown until OD600 was about 0.3 after which the culture was incubated at 15° C. and 160 rpm. Once OD600 reached about 0.4, IPTG was added to a final concentration of 0.1 mM and the cells were grown overnight at 15° C. and 160 rpm. Cells were harvested by centrifugation at 8000 rpm, for 4 minutes at 4° C. and stored at −80° C. for purification.
Expressed full-length human His-tagged SMYD3 protein was purified from cell paste by Nickel affinity chromatography after equilibration of the resin with Buffer A (25 mM Tris, 200 mM NaCl, 5% glycerol, 5 mM β-mercaptoethanol, pH7.8). The column was washed with Buffer B (Buffer A plus 20 mM imidazole) and His-tagged SMYD3 was eluted with Buffer C (Buffer A plus 300 mM imidazole). The His tag, TEV and SUMO cleavage sites were removed generating native SMYD3 by addition of ULP1 protein at a ratio of 1:200 (ULP1:SMYD3). Imidazole was removed by dialysis overnight in Buffer A. The dialyzed solution was applied to a second Nickel column and the native SMYD3 protein was collected from the column flow-through. The flow-through was dialyzed in Buffer D (25 mM Tris, 5% glycerol, 5 mM β-mercaptoethanol, 50 mM NaCl, pH7.8) and ULP1 was removed using a Q sepharose fast flow column. SMYD3 was eluted in Buffer A and further purified using an S200 size-exclusion column equilibrated with Buffer A. SMYD3 was concentrated to 2 mg/mL with a final purity of 89%.
The assays were all performed in a buffer consisting of 25 mM Tris-Cl pH 8.0, 1 mM TCEP, 0.005% BSG, and 0.005% Tween 20, prepared on the day of use. Compounds in 100% DMSO (1 ul) were spotted into a 384-well white opaque OptiPlate using a Bravo automated liquid handling platform outfitted with a 384-channel head (Agilent Technologies). DMSO (1 ul) was added to Columns 11, 12, 23, 24, rows A-H for the maximum signal control and 1 ul of SAH, a known product and inhibitor of SMYD3, was added to columns 11, 12, 23, 24, rows I-P for the minimum signal control. A cocktail (40 ul) containing the SMYD3 enzyme was added by Multidrop Combi (Thermo-Fisher). […]

SMILES	IC50 [µM]
CN1CCC(NC(=O)c2cc(C3CC3)on2)C1 (stereo not shown) [compound 29, 5-cyclopropyl-N-(1-methylpyrrolidin-3-yl)isoxazole-3-carboxamide]	84
NCCCC(=O)N1CC[C@@H](NC(=O)c2cc(C3CC3)on2)C1 [compound 30, (R)-N-(1-(4-amino-butanoyl)pyrrolidin-3-yl)-5-cyclopropyl-isoxazole-3-carboxamide]	> 10
N[C@H]1CC[C@H](C(=O)N2CC[C@@H](NC(=O)c3cc(C4CC4)on3)C2)CC1 [compound 31, N-((R)-1-((1r,4r)-4-aminocyclohexane-1-carbonyl)pyrrolidin-3-yl)-5-cyclopropyl-isoxazole-3-carboxamide]	> 10
NCCCC(=O)N1CC[C@H](NC(=O)c2cc(C3CC3)on2)C1 [compound 32, (S)-N-(1-(4-amino-butanoyl)pyrrolidin-3-yl)-5-cyclopropyl-isoxazole-3-carboxamide]	> 10
N[C@H]1CC[C@H](C(=O)N2CC[C@H](NC(=O)c3cc(C4CC4)on3)C2)CC1 [compound 33, N-((S)-1-((1r,4s)-4-aminocyclohexane-1-carbonyl)pyrrolidin-3-yl)-5-cyclopropyl-isoxazole-3-carboxamide]	3.25
NCCCS(=O)(=O)N1CC[C@@H](NC(=O)c2cc(C3CC3)on2)C1 [compound 34, (R)-N-(1-((3-amino-propyl)sulfonyl)pyrrolidin-3-yl)-5-cyclopropyl-isoxazole-3-carboxamide]	5.8
NCCCS(=O)(=O)N1CC[C@H](NC(=O)c2cc(C3CC3)on2)C1 [compound 35, (S)-N-(1-((3-amino-propyl)sulfonyl)pyrrolidin-3-yl)-5-cyclopropyl-isoxazole-3-carboxamide]	4.43
